Where two headings read alike, the source gives them in different places.
Experiments:
[1] = tested on: Dengue serotype 2 New Guinea C (NGC) strain; assay: DENV-2 Huh-7 EC50 (qPCR of viral RNA in infected Huh7 cells); format: cell-based; conditions: MOI=0.1, 48 hours
Summary of the method: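 Huh7 cells were infected 2 h at 37 °C with DENV-2 NGC at MOI 0.1, then plated with graded compound doses (0.25% DMSO) in triplicate for 48 h. Viral RNA was quantified by duplex TaqMan qPCR against GAPDH. EC50 was normalized to positive and no-compound controls.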

[2] = tested on: Human hepatocarcinoma 7 (Huh7) cells; assay: Huh-7 CC50 (CellTiter Glo viability); format: cell-based; conditions: 48 hours
Summary of the method: (§1)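 Huh7 cells in 10% FCS DMEM plated at 1-2×10^4 per well in triplicate with graded compound doses, 0.25% DMSO throughout. Viability after 48 hours by CellTiter Glo luminescence, normalized to no-compound and no-cell controls; CC50 from curve fitting.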

RSV strain A2 = assay: RSV HEp-2 EC50 (infectious cytopathic cell protection assay); format: cell-based, RSV strain A2; HEp-2 cells; conditions: read-out: RSV Hep-2 EC50
Summary of the method: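 HEp-2 cells (50,000/mL) infected with titered RSV stock, added onto compound in 3-fold serial dilutions; 4 days at 37 °C. Cell viability read by CellTiter-Glo luminescence; percent inhibition of virus-induced cytopathic effect derived from remaining viability against 0% and 100% inhibition controls.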

uninfected HEp-2 cells = assay: HEp-2 CC50 (cytotoxicity in uninfected HEp-2 cells); format: cell-based; conditions: 4 days, CellTiter Glo
Description: (§2) Instead, an uninfected cell mixture at the same density is added at 20 uL/well to plates containing prediluted compounds, also at 100 nL/sample. Assay plates are then incubated for 4 days followed by a cell viability test using the same CellTiter Glo reagent addition and measurement of luminescent readouts. Untreated cell and cells treated at 2 μM puromycin (Sigma, St. Louis, MO) serve as 100% and 0% cell viability control, respectively.

[3] = tested on: Dengue 2, New Guinea strain (NGC); assay: DENV-2 moDC EC50 (qPCR of viral RNA in infected moDCs); format: cell-based, New Guinea strain (NGC); human moDCs; conditions: Dengue virus, human moDCs infected with Dengue 2 NGC, MOI=0.1, 48 hours
Description: Example 82. DENV-2 moDC EC50
Human monocyte-derived dendritic cells (moDCs) were derived from CD14+ monocytes (AllCells) cultured in Human Mo-DC Differentiation medium containing GM-CSF and IL-4 (Miltenyi Biotec). On day 7, moDCs were harvested by mechanical disruption, washed and suspended in serum-free RPMI. moDCs were infected with Vero-derived Dengue 2, New Guinea strain (NGC) at a MOI=0.1 for two hours in serum-free RPMI with gentle agitation at 37° C. Cells were washed and resuspended in 10% serum-containing RPMI (Gibco, supplemented with sodium pyruvate, NEAA, Penicillin-Streptomycin). […] were plated in triplicate in 96-well plates with compounds dispensed at graded doses (Hewlett-Packard D300 Digital Dispenser). All wells were normalized to 0.25% DMSO. At 48 hours, cells were washed with 1×PBS and all supernatants removed. Total RNA was extracted using RNEasy 96 plates (Qiagen) and used to generate first-strand cDNA using XLT cDNA 5× Supermix (QuantaBio). cDNA was used as a template in a Taqman qPCR duplex reaction specific to DENV2 viral and GAPDH gene expression. EC50 values were determined using Prism Graphpad software, with normalization to a positive control and no compound negative control wells.

[4] = moDC CC50 (CellTiter Glo viability); format: cell-based, Human; conditions: human, uninfected moDCs
Description: Human monocyte-derived dendritic cells (moDCs) were derived from CD14+ monocytes (AllCells) cultured in Human Mo-DC Differentiation medium containing GM-CSF and IL-4 (Miltenyi Biotec). On day 7, moDCs were harvested by mechanical disruption, washed and cultured in triplicate at […] cells/well in 96-well plates with compounds dispensed at graded doses (Hewlett-Packard D300 Digital Dispenser). All wells were normalized to 0.25% DMSO. After 48 hours, CellTiter Glo (Promega) was added and incubated for 10 minutes at room temp before reading on a luminometer. % viability curves were calculated against no compound and no cell control wells. CC50 values were determined using Prism Graphpad software.

[5] = Huh-7 CC50 (CellTiter Glo viability); format: cell-based, Human; conditions: human, Huh7 hepatocarcinoma cells
Summary of the method: as §1

[6] = HEp-2 CC50 (cytotoxicity in uninfected HEp-2 cells); format: cell-based; conditions: human, CellTiter Glo
Description: as §2

[7] = Huh7 cells infected with Dengue serotype 2 NGC
[8] = HEp-2 cells infected with RSV A2, 4 days, Cell TiterGlo
[9] = Dengue virus, DENV2, Huh-7, Huh7 cells infected with Dengue serotype 2 NGC
[10] = human respiratory syncytial virus, HEp-2, 96 h

Row | SMILES | EC50 [1, 7] | CC50 [2] | EC50 (RSV strain A2; [8]) | CC50 (uninfected HEp-2 cells) | EC50 [3] | CC50 at 48 h [4] | EC50 [1, 9] | CC50 at 48 h [5] | EC50 (RSV strain A2; [10]) | CC50 at 4 days [6]
1 | CCOC(=O)[C@H](C)NP(=O)(OC[C@@]1(CF)O[C@@H](c2ccc3c(N)ncnn23)[C@H](O)[C@@H]1O)Oc1ccc(C(C)(C)C)cc1 (single isomer, unassigned) [Example 48] | 0.39 µM | 15.4 µM | 0.215 µM | 30.2 µM |  |  |  |  |  | 
2 | CCOC(=O)[C@H](C)NP(=O)(OC[C@@]1(CF)O[C@@H](c2ccc3c(N)ncnn23)[C@H](O)[C@@H]1O)Oc1ccc(C(C)(C)C)cc1 (single isomer, unassigned) [Example 49] | 0.334 µM | > 25 µM | 0.225 µM | > 100 µM |  |  |  |  |  | 
3 | COC(C)(C)COC(=O)[C@H](C)NP(=O)(OC[C@@]1(CF)O[C@@H](c2ccc3c(N)ncnn23)[C@H](O)[C@@H]1O)Oc1ccccc1 (stereo partly drawn) [Example 43, 2-methoxy-2-methylpropyl ((((2R,3S,4R,5S)-5-(4-aminopyrrolo[2,1-f][1,2,4]triazin-7-yl)-2-(fluoromethyl)-3,4-dihydroxytetrahydrofuran-2-yl)methoxy)(phenoxy)phosphoryl)-L-alaninate] |  |  |  |  | 0.626 µM | 17.9 µM | 1.2 µM | > 25 µM | 2.16 µM | > 100 µM
4 | CCOCCOCCOC(=O)[C@H](C)NP(=O)(OC[C@@]1(CF)O[C@@H](c2ccc3c(N)ncnn23)[C@H](O)[C@@H]1O)Oc1ccccc1 (stereo partly drawn) [Example 45, 2-(2-ethoxyethoxy)ethyl ((((2R,3S,4R,5S)-5-(4-aminopyrrolo[2,1-f][1,2,4]triazin-7-yl)-2-(fluoromethyl)-3,4-dihydroxytetrahydrofuran-2-yl)methoxy)(phenoxy)phosphoryl)-L-alaninate] |  |  |  |  | > 5 µM | > 25 µM | 4.58 µM | > 25 µM | 21.8 µM | > 100 µM
5 | CCCCCOC(=O)[C@H](C)NP(=O)(OC[C@@]1(CF)O[C@@H](c2ccc3c(N)ncnn23)[C@H](O)[C@@H]1O)Oc1ccccc1 (stereo partly drawn) [Example 59, pentyl ((((2R,3S,4R,5S)-5-(4-aminopyrrolo[2,1-f][1,2,4]triazin-7-yl)-2-(fluoromethyl)-3,4-dihydroxytetrahydrofuran-2-yl)methoxy)(phenoxy)phosphoryl)-L-alaninate] |  |  |  |  | 0.062 µM | 7.04 µM | 0.153 µM | 11.3 µM | 0.298 µM | 45.1 µM
6 | CCCC(CCC)COC(=O)[C@H](C)NP(=O)(OC[C@@]1(CF)O[C@@H](c2ccc3c(N)ncnn23)[C@H](O)[C@@H]1O)Oc1ccccc1 (stereo partly drawn) [Example 68, 2-propylpentyl ((((2R,3S,4R,5S)-5-(4-aminopyrrolo[2,1-f][1,2,4]triazin-7-yl)-2-(fluoromethyl)-3,4-dihydroxytetrahydrofuran-2-yl)methoxy)(phenoxy)phosphoryl)-L-alaninate] |  |  |  |  | 0.169 µM | 6.26 µM | 0.278 µM | > 25 µM | 0.141 µM | > 100 µM
7 | CC(C)COC(=O)[C@H](C)NP(=O)(OC[C@@]1(CF)O[C@@H](c2ccc3c(N)ncnn23)[C@H](O)[C@@H]1O)Oc1ccccc1 (stereo partly drawn) [Example 70, isobutyl ((((2R,3S,4R,5S)-5-(4-aminopyrrolo[2,1-f][1,2,4]triazin-7-yl)-2-(fluoromethyl)-3,4-dihydroxytetrahydrofuran-2-yl)methoxy)(phenoxy)phosphoryl)-L-alaninate] |  |  |  |  | 0.19 µM | 3.57 µM | 0.245 µM | 10.6 µM | 0.212 µM | 69.4 µM
8 | C[C@H](NP(=O)(OC[C@@]1(CF)O[C@@H](c2ccc3c(N)ncnn23)[C@H](O)[C@@H]1O)Oc1ccccc1)C(=O)OC1CCC1 (stereo partly drawn) [Example 71, cyclobutyl ((((2R,3S,4R,5S)-5-(4-aminopyrrolo[2,1-f][1,2,4]triazin-7-yl)-2-(fluoromethyl)-3,4-dihydroxytetrahydrofuran-2-yl)methoxy)(phenoxy)phosphoryl)-L-alaninate] |  |  |  |  | 0.143 µM | 8.8 µM | 0.298 µM | 13 µM | 0.29 µM | > 100 µM

— patent publication US12030903B2, “Antiviral compounds” (Gilead Sciences, Inc., priority 2020, dated 2024)
